Columns and labels:
[1] = at 30° C.; cited from earlier work
[2] = Confirmation of solubility of CF4 for phosphonium ionic liquid (headspace CF4 by GC-MS); format: physicochemical; details: 5 ml ionic liquid in 60 ml serum bottle, 200 ppm CF4 in upper empty space, 24 hours shaking; control distilled water
Procedure: 5 ml of a phosphonium ionic liquid was put in a 60 ml glass serum bottle, and CF4 was supplied to the upper empty space at a concentration of 200 ppm based on the volume of the empty space. After air-tightening by closing a lid, the bottle was incubated for 24 hours under shaking. Then, the air in the upper empty space was collected, and a concentration of CF4 was measured using gas chromatography mass-spectrum (GC-MS). Distilled water of the same volume was used as a control group.
The CF4 removal rates in Tables 1 and 2 were calculated from the following Mathematical Equation 1:
CF4 removal rate=[(initial CF4 content−CF4 content after reaction)/initial CF4 content]×100 <Mathematical Equation 1>

Compound: FC(F)(F)F [CF4]
- solubility of CF4 in water [1]: 17.1 µg/mL

Compound: triethyl octyl phosphonium bis(trifluoromethylsulfonyl)imide [[P2228]^+ [NTf2]^−]
- CF4 reduction rate (%) [2]: 13.9%

Compound: trihexyl tetradecyl phosphonium bis(trifluoromethylsulfonyl)imide [[P66614]^+ [NTf2]^−]
- CF4 reduction rate (%) [2]: 10.9%

From patent publication US20200129922A1, “METHOD OF REDUCING CONCENTRATION OF FLUORINE-CONTAINING COMPOUND IN SAMPLE” (Samsung Electronics Co., Ltd., priority 2018, published 2020)
